According to the NIST ThermoML archive (doi:10.1021/je0497698):
± gives the expanded uncertainty stated by the source.

Details: Liquid

C=CC [propene]
vapor or sublimation pressure (273.15 K): 587.8 ± 2.1 kPa | vapor or sublimation pressure (283.15 K): 781.2 ± 2.1 kPa | vapor or sublimation pressure (293.15 K): 1020.2 ± 2.2 kPa | vapor or sublimation pressure (303.15 K): 1308.2 ± 2.3 kPa | vapor or sublimation pressure (313.15 K): 1650.8 ± 2.5 kPa

FCF [difluoromethane]
vapor or sublimation pressure (273.15 K): 816.8 ± 2.2 kPa | vapor or sublimation pressure (283.15 K): 1111.8 ± 2.2 kPa | vapor or sublimation pressure (293.15 K): 1480.2 ± 2.4 kPa | vapor or sublimation pressure (303.15 K): 1930.4 ± 2.5 kPa | vapor or sublimation pressure (313.15 K): 2478 ± 2.8 kPa
